Measured values from PubChem BioAssay AID1963842 (Molecular Pharmacology Branch, DTP, NCI, 2024).

System: 677734-321-R-J1-PDC complex spheroid viability
Test: Anticancer human tumor 677734-321-R-J1-PDC patient-derived soft tissue sarcoma cell line growth inhibition [POLQ]
Conditions: for IC50: curve of first compound; for viability, T/C: stronger effect = lower value; active means viability on the fitted dose curve at most 10% of control; inactive means the rest
Protocol: Multicellular complex tumor spheroid response to Polymerase (POL) inhibitors (novobiocin, ART-558, RP6685) in combination with a variety of drugs and investigational agents in selected tumor cell lines
The POL inhibitors (novobiocin, ART-558, and RP6685) were evaluated both individually and in combination with standard of care and investigational anticancer small molecules within a complex spheroid model of solid tumors. . Complex spheroids include a stromal component modeled by human endothelial cells (HUVEC) and fibroblasts modeled by human mesenchymal stem cells (MSCs). The concentration ranges selected for each drug and investigational agent were based upon clinically achievable concentrations if the clinical Cmax of the agent was known.
Compounds. The drugs and investigational agents: novobiocin (NSC847541), ART-558 (NSC835418), RP-6685 (NSC848927), peposertib (NSC802822), ceralasertib (NSC780249), elimusertib (NSC800525), camonsertib (NSC841442), AZD-1390 (NSC803789), olaparib (NSC753686), talazoparib (NSC767125), rucaparib (NSC756644), sotorasib (NSC818433), MRTX-1133 (NSC836407), SN-38 (NSC673596), topotecan (NSC609699), epotoside (NSC141540), doxorubicin (NSC123127), gemcitabine (NSC613327), 5-fluorouracil (NSC19893), paclitaxel (NSC125973), vemurafenib (NSC761431), MSA-2 (NSC828583), SN-011 (NSC837082), adavosertib (NSC754352), prexasertib (NSC758257), carboplatin (NSC241240) and oxaliplatin (NSC266046), were obtained from the National Cancer Institute (NCI) Developmental Therapeutics Program Chemical Repository (21). The FDA-approved anticancer drug set is available from the Developmental Therapeutics Program at https://dtp.cancer.gov/organization/dscb/obtaining/. […] The stock solutions were prepared in dimethyl sulfoxide (DMSO, Sigma-Aldrich, St. Louis, MO, cat. D2650), except for the platinum compounds which were prepared in saline (Quality Biological, Gaithersburg, MD, cat. 114-055-101), at 800-fold the tested concentration and stored at -70 degrees C prior to their use. All drugs and investigational agents were tested over a range starting from a high concentration at or near the clinical Cmax and decreasing in half-log increments. If the clinical Cmax for an agent had not been determined, the highest concentration tested was 10 microM, except for SN-38, which was tested at a high concentration of 1 microM.
Cell Culture. All cells were maintained in an incubator at 37 degrees C and 5% CO2 with 95% humidity. The PDC lines were cultured according to standard operating procedures established by the NCI PDMR (https://pdmr.cancer.gov). Table 3 of the manuscript, lists the cell lines along with the number of the three cell types plated to form the mct-spheroids and media for tumor cell growth. After thawing, all PDC lines, except 997537-175-T-J1-PDC and 415267-285-R-J2-PDC, were cultured in Matrigel-coated flasks prepared with a working solution of 1X Ham's F-12 nutrient mix, without supplementation (Thermo Fisher Scientific, cat. 11765054), 100 U/mL penicillin-streptomycin (Thermo Fisher Scientific, cat. 15140122), and 2.5% Matrigel (Corning Inc., Corning, NY, cat. 354248) for the first three passages. The two PDC lines 997537-175-T-J1-PDC and 415267-285-R-J2-PDC were cultured on uncoated flasks. The 857933-349-R-J2-PDC line was cultured in 6C/Colon 1B media containing advanced DMEM/F-12 (Thermo Fisher Scientific, cat. 12634028), 10 mM HEPES (Thermo Fisher Scientific, cat. 15630080), 1X GlutaMAX supplement (Thermo Fisher Scientific, cat. 35050061), 0.1 mg/mL primocin (InvivoGen, San Diego, CA, cat. ant-pm-2), 10% defined fetal bovine serum, heat inactivated (HyClone Laboratories Inc., Logan, UT, cat. SH30070.03HI), 50% L-WRN conditioned media (ATCC, cat. CRL-3276), 1.25 mM N-Acetyl-L-cysteine (Sigma-Aldrich, cat. A9165), 10 mM nicotinamide (Sigma-Aldrich, cat. N0636), 1X B-27 supplement (Thermo Fisher Scientific, cat. 17504044), 1X N-2 supplement (Thermo Fisher Scientific, cat. […]

[1] = second compound 0.0316 µM, first compound 0.0316 µM
[2] = second compound 0.0316 µM, first compound 0.1 µM
[3] = second compound 0.0316 µM, first compound 0.316 µM
[4] = second compound 0.0316 µM, first compound 1 µM
[5] = second compound 0.1 µM, first compound 0.0316 µM
[6] = second compound 0.1 µM, first compound 0.1 µM
[7] = second compound 0.1 µM, first compound 0.316 µM
[8] = second compound 0.1 µM, first compound 1 µM
[9] = second compound 0.316 µM, first compound 0.0316 µM
[10] = second compound 0.316 µM, first compound 0.1 µM
[11] = second compound 0.316 µM, first compound 0.316 µM
[12] = second compound 0.316 µM, first compound 1 µM
[13] = second compound 1 µM, first compound 0.0316 µM
[14] = second compound 1 µM, first compound 0.1 µM
[15] = second compound 1 µM, first compound 0.316 µM
[16] = second compound 1 µM, first compound 1 µM
[17] = second compound 3.16 µM, first compound 0.0316 µM
[18] = second compound 3.16 µM, first compound 0.1 µM
[19] = second compound 3.16 µM, first compound 0.316 µM
[20] = second compound 3.16 µM, first compound 1 µM
[21] = second compound 10 µM, first compound 0.0316 µM
[22] = second compound 10 µM, first compound 0.1 µM
[23] = second compound 10 µM, first compound 0.316 µM
[24] = second compound 10 µM, first compound 1 µM
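Further: spheroids exposed to compounds for one week.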
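Wherever viability, T/C is given: 100% = vehicle DMSO treated spheroids.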

C=CCn1c(=O)c2cnc(Nc3ccc(N4CCN(C)CC4)cc3)nc2n1-c1cccc(C(C)(C)O)n1 + COC1C(OC(N)=O)C(O)C(Oc2ccc3c(O)c(NC(=O)c4ccc(O)c(CC=C(C)C)c4)c(=O)oc3c2C)OC1(C)C
> 1000 nM: IC50 (second compound 0.0316 µM) | IC50 (second compound 0.1 µM) | IC50 (second compound 0.316 µM) | IC50 (second compound 1 µM) | IC50 (second compound 3.16 µM) | IC50 (second compound 10 µM)
inactive: viability, T/C (second compound 0.0316 µM, first compound 0.00316 µM) 110% | viability, T/C (second compound 0.0316 µM, first compound 0.01 µM) 93.9% | viability, T/C [1] 101% | viability, T/C [2] 102% | viability, T/C [3] 104% | viability, T/C [4] 61.6% | viability, T/C (second compound 0.1 µM, first compound 0.00316 µM) 105% | viability, T/C (second compound 0.1 µM, first compound 0.01 µM) 106% | viability, T/C [5] 101% | viability, T/C [6] 99.3% | viability, T/C [7] 104% | viability, T/C [8] 72.4% | viability, T/C (second compound 0.316 µM, first compound 0.00316 µM) 119% | viability, T/C (second compound 0.316 µM, first compound 0.01 µM) 105% | viability, T/C [9] 103% | viability, T/C [10] 111% | viability, T/C [11] 111% | viability, T/C [12] 70.2% | viability, T/C (second compound 1 µM, first compound 0.00316 µM) 108% | viability, T/C (second compound 1 µM, first compound 0.01 µM) 102% | viability, T/C [13] 104% | viability, T/C [14] 112% | viability, T/C [15] 107% | viability, T/C [16] 66.3% | viability, T/C (second compound 3.16 µM, first compound 0.00316 µM) 101% | viability, T/C (second compound 3.16 µM, first compound 0.01 µM) 103% | viability, T/C [17] 104% | viability, T/C [18] 115% | viability, T/C [19] 106% | viability, T/C [20] 69.8% | viability, T/C (second compound 10 µM, first compound 0.00316 µM) 109% | viability, T/C (second compound 10 µM, first compound 0.01 µM) 110% | viability, T/C [21] 102% | viability, T/C [22] 106% | viability, T/C [23] 105% | viability, T/C [24] 76%

CC1COCCN1c1cc(C2(O)CC3CCC(C2)O3)c2cnn(-c3ccn[nH]3)c2n1 (centres undefined) + COC1C(OC(N)=O)C(O)C(Oc2ccc3c(O)c(NC(=O)c4ccc(O)c(CC=C(C)C)c4)c(=O)oc3c2C)OC1(C)C
131 nM: IC50 (second compound 0.0316 µM)
97 nM: IC50 (second compound 3.16 µM)
inactive: viability, T/C [1] 87.1% | viability, T/C [2] 58.1% | viability, T/C [3] 24.2% | viability, T/C [4] 16.8% | viability, T/C (second compound 0.0316 µM, first compound 3.16 µM) 17.9% | viability, T/C (second compound 0.0316 µM, first compound 10 µM) 16.3% | viability, T/C [5] 92.9% | viability, T/C [6] 64.7% | viability, T/C [7] 22.7% | viability, T/C [8] 16.4% | viability, T/C (second compound 0.1 µM, first compound 3.16 µM) 13.5% | viability, T/C (second compound 0.1 µM, first compound 10 µM) 13.3% | viability, T/C [9] 80.2% | viability, T/C [10] 46.2% | viability, T/C [11] 22.6% | viability, T/C [12] 19.1% | viability, T/C (second compound 0.316 µM, first compound 3.16 µM) 14.7% | viability, T/C (second compound 0.316 µM, first compound 10 µM) 13.8% | viability, T/C [13] 92.5% | viability, T/C [14] 54.2% | viability, T/C [15] 18.6% | viability, T/C [16] 15.9% | viability, T/C (second compound 1 µM, first compound 3.16 µM) 17.1% | viability, T/C (second compound 1 µM, first compound 10 µM) 14.2% | viability, T/C [17] 85.3% | viability, T/C [18] 49% | viability, T/C [19] 25.4% | viability, T/C [20] 16.7% | viability, T/C (second compound 3.16 µM, first compound 3.16 µM) 15.2% | viability, T/C (second compound 3.16 µM, first compound 10 µM) 14.6% | viability, T/C [21] 89.6% | viability, T/C [22] 43.9% | viability, T/C [23] 21.3% | viability, T/C [24] 15.6% | viability, T/C (second compound 10 µM, first compound 3.16 µM) 16.1% | viability, T/C (second compound 10 µM, first compound 10 µM) 15.4%
115 nM: IC50 (second compound 1 µM)
87.2 nM: IC50 (second compound 0.316 µM)
150 nM: IC50 (second compound 0.1 µM)
85.8 nM: IC50 (second compound 10 µM)
